In US20210046096A1, “Pharmaceutical Composition of Brigatinib” (Sandoz AG, priority 2018, published 2021):
Like-named read-outs stand apart in the source and are kept apart here.

Tests used:
[1] = Stability in the amorphous state upon storage (PXRD), general statements; format: physicochemical; conditions: conditions not given, judged by PXRD
Excerpt: The brigatinib in the context of the solid dispersion of the present invention is stable in the amorphous state upon storage, as judged by the absence of characteristic PXRD peaks after storage. […] Also in the context of solid dispersions with carriers such as polyvinylpyrrolidon PVP-40000 or Syloid® AL-1FP, amorphous brigatinib converts to crystalline brigatinib upon storage.

[2] = Moisture stability at accelerated stress conditions, analysed by PXRD; format: physicochemical; conditions: open storage, physical form by PXRD
Protocol: Powder X-ray diffraction was performed with a PANalytical X'Pert PRO diffractometer equipped with a theta/theta coupled goniometer in transmission geometry, Cu-Kalpha1,2 radiation (wavelength 0.15419 nm) with a focusing mirror and a solid state PIXcel detector. Diffractograms were recorded at a tube voltage of 45 kV and a tube current of 40 mA, applying a stepsize of 0.013° 2-Theta with 40 s per step (255 channels) in the angular range of 2° to 40° 2-Theta at ambient conditions.
Moisture stability at accelerated stress conditions was performed in a Memmert constant climate chamber HPP110. 30-50 mg of a given solid composition prepared according to the Examples and Comparative Example herein were exposed to an atmosphere having a relative humidity of 75±0.5% and a temperature of 40±0.5° C. for a period of time as indicated in Tables 1-3 below and analyzed via PXRD as described above.
Brigatinib (1.50 g, e.g. prepared according to the procedures disclosed in WO 2016/065028 A1, part V) was dissolved in 75 mL of acetonitrile/water solution (volume ratio 50:50). The solution was filtered. The homogeneous solution was frozen in a bath of liquid nitrogen and lyophilized at a pressure of from 0.02 to 1.0 mbar, yielding amorphous brigatinib, as confirmed by the PXRD depicted in FIG. 1. The obtained amorphous brigatinib was stored open under accelerated stability conditions (temperature: 40° C., relative humidity: 75%).
Brigatinib (about 100 mg, e.g. prepared according to the procedures disclosed in WO 2016/065028 A1, part V) and the organic polymer (about 100 mg) according to Table 2 were dissolved in 7 to 8 mL of acetonitrile/water solution (volume ratio 50:50). The homogeneous solution was frozen in a bath of liquid nitrogen and lyophilized at a pressure of from 0.02 to 1.0 mbar, yielding an amorphous solid dispersion of brigatinib. The so obtained solid dispersion was open stored under accelerated stability conditions (temperature: 40° C., relative humidity: 75%) for three weeks. […]

[3] = cited from earlier work
[4] = Thermogravimetric mass spectroscopy (TGMS) thermal stability; format: physicochemical; conditions: heated 25° C. to 250° C. at 10° C./min
Protocol: Thermogravimetric analysis (TGA) was performed on a Mettler Toledo TGA/DSC 1 instrument. Samples were heated in 100 μl aluminium pans closed with aluminium lids. Lids were automatically pierced at the beginning of the measurement. Samples were initially kept at 25° C. for 2.5 minutes and then heated from room temperature to 250° C. at a rate of 10° C./min. Nitrogen (purge rate 30 ml/min) was used as purge gas.
Mass spectrometry (MS) measurements, coupled with thermogravimetric analysis (TGA), were performed with a Pfeiffer GSD 320 ThermoStar Gas Analysis System. A part of the headspace was evacuated with a capillary placed near the TG sample pan, and mass fragments between 1-100 atomic mass units (amu) were analyzed simultaneously without further separation applying a secondary electron multiplier (SEM) for signal amplification.

[5] = as described in WO 2016/065028 A1

COc1cc(N2CCC(N3CCN(C)CC3)CC2)ccc1Nc1ncc(Cl)c(Nc2ccccc2P(C)(C)=O)n1 [Brigatinib, 5-chloro-N4-[2-(dimethylphosphoryl)phenyl]-N2-[2-methoxy-4-[4-(4-methylpiperazin-1-yl)piperidin-1-yl]phenyl]pyrimidine-2,4-diamine]
Stability of the amorphous state upon storage [1]: readily converts to crystalline form A of brigatinib upon storage for as short as one week only | PXRD analysis after storage at 40° C. and 75% RH for 1 week [2]: Form A | PXRD analysis after storage at 40° C. and 75% RH for 1 week ([2]; listed as neat amorphous brigatinib): contained crystalline Form A | PXRD analysis after storage at 40° C. and 75% RH for 3 weeks ([2]; 3 weeks): Form A

COc1cc(N2CCC(N3CCN(C)CC3)CC2)ccc1Nc1ncc(Cl)c(Nc2ccccc2P(C)(C)=O)n1 [Form B, 5-chloro-N4-[2-(dimethylphosphoryl)phenyl]-N2-[2-methoxy-4-[4-(4-methylpiperazin-1-yl)piperidin-1-yl]phenyl]pyrimidine-2,4-diamine]
Hygroscopicity [3, 5]: hydroscopic | Relative humidity at which the form reversibly converts to hydrated crystalline forms C or D [3, 5]: above 30% | Temperature at which the form transforms to form A ([3]; elevated temperature, WO 2016/065028 A1): above 150 °C

COc1cc(N2CCC(N3CCN(C)CC3)CC2)ccc1Nc1ncc(Cl)c(Nc2ccccc2P(C)(C)=O)n1 [brigatinib form A, 5-chloro-N4-[2-(dimethylphosphoryl)phenyl]-N2-[2-methoxy-4-[4-(4-methylpiperazin-1-yl)piperidin-1-yl]phenyl]pyrimidine-2,4-diamine]
Hygroscopicity ([3]; as described in WO 2016/065028 A1, listed as Form A): non-hygroscopic | Temperature at which the chemistry of the sample changes (TGMS) [4]: about 100 °C
